# Values quoted from earlier work, collected in patent US20260041141A1, “AEROSOL-GENERATING ARTICLE WITH AN ISOLATED AVERSIVE COMPONENT” (PHILIP MORRIS PRODUCTS S.A., priority 2022, published 2026).
# Counter-ions that a name gives are not always drawn.
# Details: reciprocal of the dilution that still has a bitter taste; quinine hydrochloride reference set at 200,000
compound,measurement,value
C=C[C@H]1C[N@@]2CC[C@H]1C[C@H]2[C@H](O)c1ccnc2ccc(OC)cc12 [Quinine hydrochloride],Bitterness value,"200,000"
C[C@@]12C[C@@H](c3ccoc3)OC(=O)[C@@H]1CC[C@]1(C)[C@H]2[C@@H]2C=C[C@@]1(O)C(=O)O2 [Columbin],Bitterness value,"60,000,000"
Amarogentin,Bitterness value,"58,000,000"
CC1=C[C@H]2[C@H]3[C@H](C(C)=C4[C@H]5OC(=O)[C@@H](C)[C@@H]5CC[C@](C)(O)[C@@H]43)[C@@]13[C@@H]2[C@@](C)(O)CC[C@H]1[C@H](C)C(=O)O[C@@H]13 [Absinthin],Bitterness value,"3,000,000"
COC1=C[C@@H](C)[C@@H]2C[C@H]3OC(=O)C[C@H]4C(C)=C(OC)C(=O)[C@H]([C@@]2(C)C1=O)[C@@]34C [Quassin],Bitterness value,"13,000,000"
